Measured values published in BigSolDB 2.1.

SMILES: CCc1ccc(C(=O)c2ccccc2C(=O)O)cc1
- solubility (mole fraction) (in 1,4-dioxane, 288.88 K): 0.0042
- solubility (mole fraction) (in 1,4-dioxane, 293.97 K): 0.0066
- solubility (mole fraction) (in 1,4-dioxane, 298.46 K): 0.0091
- solubility (mole fraction) (in 1,4-dioxane, 303.53 K): 0.0121
- solubility (mole fraction) (in 1,4-dioxane, 308.09 K): 0.0153
- solubility (mole fraction) (in 1,4-dioxane, 313.4 K): 0.0195
- solubility (mole fraction) (in 1,4-dioxane, 319.15 K): 0.024
- solubility (mole fraction) (in 1,4-dioxane, 322.54 K): 0.0278
- solubility (mole fraction) (in 1,4-dioxane, 333.97 K): 0.0353
- solubility (mole fraction) (in DMF, 281.2 K): 0.343
- solubility (mole fraction) (in DMF, 286.49 K): 0.367
- solubility (mole fraction) (in DMF, 290.63 K): 0.382
- solubility (mole fraction) (in DMF, 296.42 K): 0.42
- solubility (mole fraction) (in DMF, 305.65 K): 0.451
- solubility (mole fraction) (in DMF, 314.34 K): 0.47
- solubility (mole fraction) (in DMF, 325.55 K): 0.507
- solubility (mole fraction) (in DMF, 335.75 K): 0.532
- solubility (mole fraction) (in NMP, 280.1 K): 0.163
- solubility (mole fraction) (in NMP, 284.15 K): 0.175
- solubility (mole fraction) (in NMP, 293.44 K): 0.209
- solubility (mole fraction) (in NMP, 303.76 K): 0.26
- solubility (mole fraction) (in NMP, 313.15 K): 0.315
- solubility (mole fraction) (in NMP, 322.85 K): 0.396
- solubility (mole fraction) (in NMP, 334.3 K): 0.484
- solubility (mole fraction) (in THF, 281.2 K): 0.0064
- solubility (mole fraction) (in THF, 286.49 K): 0.0085
- solubility (mole fraction) (in THF, 296.42 K): 0.0125
- solubility (mole fraction) (in THF, 305.65 K): 0.0178
- solubility (mole fraction) (in THF, 314.34 K): 0.0246
- solubility (mole fraction) (in THF, 325.55 K): 0.0377
- solubility (mole fraction) (in THF, 330.34 K): 0.0442
- solubility (mole fraction) (in THF, 335.75 K): 0.0541
- solubility (mole fraction) (in acetone, 280.25 K): 0.0015
- solubility (mole fraction) (in acetone, 284.85 K): 0.0022
- solubility (mole fraction) (in acetone, 290.87 K): 0.0032
- solubility (mole fraction) (in acetone, 299.83 K): 0.0054
- solubility (mole fraction) (in acetone, 310.39 K): 0.0087
- solubility (mole fraction) (in acetone, 314.89 K): 0.0107
- solubility (mole fraction) (in acetone, 319.6 K): 0.0132
- solubility (mole fraction) (in acetone, 324.16 K): 0.0156
- solubility (mole fraction) (in benzene, 283.05 K): 0.0023
- solubility (mole fraction) (in benzene, 288.68 K): 0.0037
- solubility (mole fraction) (in benzene, 293.52 K): 0.0052
- solubility (mole fraction) (in benzene, 302.78 K): 0.0109
- solubility (mole fraction) (in benzene, 313.15 K): 0.0228
- solubility (mole fraction) (in benzene, 322.65 K): 0.0408
- solubility (mole fraction) (in benzene, 328.38 K): 0.0598
- solubility (mole fraction) (in benzene, 332.7 K): 0.0793
- solubility (mole fraction) (in ethanol, 282.29 K): 0.0733
- solubility (mole fraction) (in ethanol, 289.68 K): 0.1
- solubility (mole fraction) (in ethanol, 294.91 K): 0.123
- solubility (mole fraction) (in ethanol, 304.6 K): 0.164
- solubility (mole fraction) (in ethanol, 314.3 K): 0.214
- solubility (mole fraction) (in ethanol, 322.91 K): 0.256
- solubility (mole fraction) (in ethanol, 328.65 K): 0.289
- solubility (mole fraction) (in ethanol, 338.19 K): 0.354
- solubility (mole fraction) (in ethanol, 342.82 K): 0.388
- solubility (mole fraction) (in ethyl formate, 280.6 K): 0.0014
- solubility (mole fraction) (in ethyl formate, 289.68 K): 0.0027
- solubility (mole fraction) (in ethyl formate, 294.91 K): 0.0038
- solubility (mole fraction) (in ethyl formate, 299.65 K): 0.005
- solubility (mole fraction) (in ethyl formate, 304.6 K): 0.006
- solubility (mole fraction) (in ethyl formate, 309.59 K): 0.0075
- solubility (mole fraction) (in ethyl formate, 314.3 K): 0.0087
- solubility (mole fraction) (in ethyl formate, 318.67 K): 0.01
- solubility (mole fraction) (in ethyl formate, 322.91 K): 0.0113
- solubility (mole fraction) (in isopropanol, 279.79 K): 0.0023
- solubility (mole fraction) (in isopropanol, 284.74 K): 0.0037
- solubility (mole fraction) (in isopropanol, 294.05 K): 0.0085
- solubility (mole fraction) (in isopropanol, 303.99 K): 0.0174
- solubility (mole fraction) (in isopropanol, 313.25 K): 0.0305
- solubility (mole fraction) (in isopropanol, 323.37 K): 0.0464
- solubility (mole fraction) (in isopropanol, 334.05 K): 0.0631
- solubility (mole fraction) (in methanol, 279.9 K): 0.0627
- solubility (mole fraction) (in methanol, 285.6 K): 0.0827
- solubility (mole fraction) (in methanol, 290.81 K): 0.101
- solubility (mole fraction) (in methanol, 295.45 K): 0.118
- solubility (mole fraction) (in methanol, 305.56 K): 0.164
- solubility (mole fraction) (in methanol, 314.4 K): 0.202
- solubility (mole fraction) (in methanol, 323.8 K): 0.248
- solubility (mole fraction) (in methanol, 328.69 K): 0.273
- solubility (mole fraction) (in methanol, 333.53 K): 0.3
- solubility (mole fraction) (in n-propanol, 279.55 K): 0.0499
- solubility (mole fraction) (in n-propanol, 288.67 K): 0.0777
- solubility (mole fraction) (in n-propanol, 299.23 K): 0.121
- solubility (mole fraction) (in n-propanol, 308.86 K): 0.168
- solubility (mole fraction) (in n-propanol, 318.93 K): 0.223
- solubility (mole fraction) (in n-propanol, 328.62 K): 0.279
- solubility (mole fraction) (in n-propanol, 338.45 K): 0.344
- solubility (mole fraction) (in n-propanol, 343.15 K): 0.387
